According to paper PMC11345829, “Discovery of Potent Isoquinolinequinone N-Oxides to Overcome Cancer Multidrug Resistance” (Journal of Medicinal Chemistry, 2024):

What was measured:
DLD1-TxR = experiment: SRB cell growth inhibition assay; type: cell-based, human; settings: for selectivity ratio colorectal cancer: GI50 sensitive DLD1 / GI50 MDR DLD1-TxR; for GI50: Homo sapiens, SRB assay, 48 h, colorectal cancer MDR, mean ± SEM
Experimental: (§1) Two distinct pairs of counterpart drug-sensitive and MDR human tumor cell lines were used, namely the non-small lung cancer (NSCLC) NCI-H460 (same cell line as in the NCI screen) and its MDR counterpart cell line NCI-H460/R and the colorectal cancer DLD1 and its MDR counterpart cell line DLD1-TxR (Table 3). The screening was performed using the SRB assay, and the GI50 for each compound was determined by interpolation on the attained concentration−response curves and compared with NCI60 screening data (SI, Figures S62−S63; Table S21).
(§2) Two pairs of drug-sensitive and multidrug-resistant (MDR) cell lines from human nonsmall cell lung cancer (NSCLC), NCI-H460 and NCI-H460/R, and colorectal cancer, DLD1 and DLD1-TxR, kindly provided by Dr M. Pešić (Belgrade, Serbia), were used to evaluate the growth inhibition potential of the compounds 1, 2, 3, 4, 5, 20, 23, 24, an 25.[76],[77] Additionally, growth inhibition assays were performed with compound 25 on two other NSCLC cell lines, A549 and NCI-H322, obtained from the American Type Culture Collection (ATCC) and the European Collection of Authenticated Cell Cultures, respectively. The A549 cell line was maintained in Dulbecco’s Modified Eagle Medium (DMEM) supplemented with 4.5 g/L Glucose with UltraGlutamine with sodium pyruvate (Lonza, Basel Stücki, Switzerland), enriched with 10% fetal bovine serum (FBS; Biowest, Nuaillé, France). The lung fibroblast MRC-5 cell line and the remaining NSCLC and colorectal cancer cell lines were cultured in Roswell Park Memorial Institute (RPMI) 1640 (with stable glutamine and 25 mM HEPES) medium (Biowest), supplemented with 10% fetal bovine serum. […] For the sulforhodamine B (SRB) and 3D cell culture assays, the media were supplemented with 5% FBS. The remaining experiments were performed with medium supplemented with 10% FBS.
(§3) Cells were seeded at a previously determined optimal cell concentration (5.0 × 10^4 cells/mL for NSCLC cells and the nontumorigenic MRC-5 cell line and 1.0 × 10^5 cells/mL for colorectal cancer cells) and incubated at 37 °C for 24 h. […] The SRB assay was performed as previously described.[78],[79] Briefly, after fixing cells with 10% (w/v) ice-cold trichloroacetic acid (Merck Life Science), the proteins were stained with 0.4% of SRB (Merck Life Science) in acetic acid (Merck Life Science). Following washing steps in acetic acid, the bound dye was solubilized with 10 mM Tris base solution (Merck Life Science). Absorbance was measured at 510 nm in a multiplate reader (Synergy Mx, Biotek Instruments Inc., Winooski, Vermont, USA) using the Gen5 software (Biotek Instruments Inc.).

NCI-H460 [1] = experiment: SRB cell growth inhibition assay; type: cell-based; settings: Homo sapiens, 48 h, NSCLC sensitive, mean ± SEM
Description: as §1, with “Taking into consideration the promising results of preliminary NCI screening, nine compounds (1, 2, 3, 4, 5, 20, 23, 24, 25) were selected for further screening in two counterpart pairs of sensitive and MDR cell lines. […] Two” for “Two”
as §2, §3

DLD1 = experiment: SRB cell growth inhibition assay; type: cell-based; settings: Homo sapiens, DLD-1, 48 h, colorectal cancer sensitive, mean ± SEM
Description: as §1, with “Taking into consideration the promising results of preliminary NCI screening, nine compounds (1, 2, 3, 4, 5, 20, 23, 24, 25) were selected for further screening in two counterpart pairs of sensitive and MDR cell lines. […] Two” for “Two”
as §2, §3

NCI-H460 [2] = experiment: NCI60 five-dose GI50 (NCI data); type: cell-based; settings: Homo sapiens, NCI data provided for comparison, read-out: NSCLC NCI-H460 GI50 (NCI)
Description: The concentration−response curve generated enables the determination of three criteria, GI50 (drug concentration at which 50% of cell growth is inhibited), total growth inhibition (TGI) and LC50 (drug concentration at which 50% of tumor cells are killed) which can be used to compare effectiveness against any compound tested in the screen since its inception.
S2.1 NCI Screening Assay Experimental details
NCI Screening Assay Experimental: Cancer cell growth assays (NCI60 screening) 5,6 One-dose study: Tested compounds were initially solubilised in DMSO, diluted into RPMI 1640 and 5% fetal bovine serum/L-glutamine, and added to 96-well plates containing cell lines previously cultured for 24 h. After 48 h incubation, the media were removed, and the cells were fixed and stained with sulforhodamine B to determine overall percent growth/ total protein content. Unbound dye was removed with five washes of 1% acetic acid, and the plates were allowed to air dry. The dye was then resolubilised in Tris buffer, and the colorimetric absorbance was measured (515 nm). Growth inhibition was measured relative to the response generated from proliferating cells cultured under identical conditions for 48 h. Data from one-dose experiments pertains to the percentage growth at […]
Five-dose study: Serial 5 × 10-fold dilution from an initial DMSO stock solution was performed, prior to incubation at each individual concentration (10 nM, 100 nM, 1 μM, 10 μM and 100 μM). Using seven absorbance measurements (time zero (Tz), control growth (C), and test growth in the presence of drug at the five concentration levels (Ti)), the percentage growth was calculated at each of the drug concentrations levels. Percentage growth inhibition was calculated as: [(Ti − Tz)/(C − Tz)] × 100 for concentrations for which Ti ≥ Tz, [(Ti − Tz)/Tz] × 100 for concentrations for which Ti < Tz. Three dose response parameters were calculated for each experimental agent. […]
was calculated from [(Ti − Tz)/(C − Tz)] × 100 = 50, which is the drug concentration resulting in a 50% reduction in the net protein increase (as measured by sulforhodamine B staining) in control cells during the drug incubation. The drug concentration resulting in total growth inhibition (TGI) was calculated from Ti = Tz. The LC50 (concentration of drug resulting in a 50% reduction in the measured protein at the end of the drug treatment as compared to that at the beginning) indicating a net loss of cells following treatment was calculated from [(Ti − Tz)/Tz] × 100 = −50. Values were calculated for each of these three parameters if the level of activity was reached; however, if the effect was not reached or was exceeded, the value for that parameter was expressed as greater or less than the maximum or minimum concentration tested.

NCI-H460/R = experiment: SRB cell growth inhibition assay; type: cell-based, human; settings: for selectivity ratio NSCLC: GI50 sensitive NCI-H460 / GI50 MDR NCI-H460/R; for GI50: Homo sapiens, NCI-H460, SRB assay, 48 h, NSCLC MDR, mean ± SEM
Experimental: Two distinct pairs of counterpart drug-sensitive and MDR human tumor cell lines were used, namely the non-small lung cancer (NSCLC) NCI-H460 (same cell line as in the NCI screen) and its MDR counterpart cell line NCI-[…] and the colorectal cancer DLD1 and its MDR counterpart cell line DLD1-TxR (Table 3). The screening was performed using the SRB assay, and the GI50 for each compound was determined by interpolation on the attained concentration-response curves and compared with NCI60 screening data (SI, Figures S62-S63; Table S21). Two pairs of drug-sensitive and multidrug-resistant (MDR) cell lines from human nonsmall cell lung cancer (NSCLC), NCI-H460 and NCI-[…], and colorectal cancer, DLD1 and DLD1-TxR, kindly provided by Dr M. […] The A549 cell line was maintained in Dulbecco's Modified Eagle Medium (DMEM) supplemented with 4.5 g/L Glucose with UltraGlutamine with sodium pyruvate (Lonza, Basel Stücki, Switzerland), enriched with 10% fetal bovine serum (FBS; Biowest, Nuaillé, France). […] For the sulforhodamine B (SRB) and 3D cell culture assays, the media were supplemented with 5% FBS. The remaining experiments were performed with medium supplemented with 10% FBS. […] The SRB assay was performed as previously described.[78],[79] Briefly, after fixing cells with 10% (w/v) ice-cold trichloroacetic acid (Merck Life Science), the proteins were stained with 0.4% of SRB (Merck Life Science) in acetic acid (Merck Life Science). Following washing steps in acetic acid, the bound dye was solubilized with 10 mM Tris base solution (Merck Life Science). Absorbance was measured at 510 nm in a multiplate reader (Synergy Mx, Biotek Instruments Inc., Winooski, Vermont, USA) using the Gen5 software (Biotek Instruments Inc.).

[3] = tested on: NCI60 tumor cell line panel; set-up: method as in PMID 31894828; settings: against 53 human tumor cell lines; cited from earlier work
NCI-H460/R spheroids = experiment: Cell Titer-Glo 3D spheroid viability assay; type: cell-based, human; settings: 48 h; 25 at 0.35 and 0.7 μM; etoposide 2 μM
Experimental: Results are presented as the % of luciferase luminescence relative to the “blank” cells (medium).
Spheroid formation was conducted in 12-series agarose 3D Petri Dish micromolds (MicroTissues Technology, MicroTissues Inc., Sigma-Aldrich). The agarose micromolds were prepared using 1% agarose in a 0.9% NaCl solution and then placed in 12-well plates and equilibrated with RPMI supplemented with 10% FBS for at least 2 h before cell seeding. Cell suspensions corresponding to 500 cells per spheroid of the NSCLC cell lines (NCI-H460 and NCI-H460/R), and 1000 cells per spheroid of the colorectal cancer cell lines (DLD1 and DLD1-TxR) were seeded in the corresponding micromolds. […] Spheroid formation was monitored with the Leica DMi1 microscope. […] At the end of the treatment, images from at least 8 different spheroids per condition were captured on the Leica Dmi1 microscope, and posteriorly analyzed with the automated open-source software AnaSP.[82] Spheroid parameters, such as equivalent diameter, circularity, and compactness, were calculated.
Spheroid viability was determined through the luminescence-based Cell Titer-Glo 3D cell viability assay (Promega). […] The plate was then incubated in the dark for 5 min with agitation and allowed to rest for 25 min before luminescence measurement. Luminescence was quantified using the microplate reader Synergy MX coupled with the GEN5 software. […]

NCI-ADR/RES = tested on: NCI-ADR/RES; set-up: method as in PMID 31894828; settings: MDR cell line, high P-gp; read-out: growth inhibition (GI50) NCI/ADR-RES; cited from earlier work

Row | GI50 (DLD1-TxR) [µM] | GI50 (NCI-H460 [1]) [µM] | GI50 (DLD1) [µM] | GI50 (NCI-H460/R) [µM] | Structure (SMILES) | selectivity ratio colorectal cancer (DLD1-TxR) | GI50 (NCI-H460 [2]) [µM] | selectivity ratio NSCLC (NCI-H460/R) | GI50 [3] [µM] | viability of NCI-H460/R spheroids (NCI-H460/R spheroids) | GI50 (NCI-ADR/RES) [µM]
1 | 4.8 ± 0.07 | 8.43 ± 1.41 | 6.62 ± 0.35 | 4.28 ± 1.08 | COC(=O)c1c2c(c(C)[n+]([O-])c1C)C(=O)C=CC2=O [Compound 3] | 1.4 | 0.731 | 2 | 1.75 | – | –
2 | – | – | – | – | COc1cc([C@@H]2c3cc4c(cc3[C@@H](O[C@@H]3O[C@@H]5CO[C@@H](C)O[C@H]5[C@H](O)[C@H]3O)[C@H]3COC(=O)[C@H]23)OCO4)cc(OC)c1O [etoposide, reference compound] | – | – | – | – | did not significantly affect the viability of the spheroids | –
3 | 0.97 ± 0.21 | – | 0.02 ± 0.003 | – | CC(=O)O[C@H]1C(=O)[C@@]2(C)[C@H]([C@H](OC(=O)c3ccccc3)[C@]3(O)C[C@H](OC(=O)[C@H](O)[C@@H](NC(=O)c4ccccc4)c4ccccc4)C(C)=C1C3(C)C)[C@]1(OC(C)=O)CO[C@@H]1C[C@@H]2O [paclitaxel, reference compound] | – | – | – | – | – | –
4 | 2.97 ± 0.13 | 3.06 ± 0.15 | 4.89 ± 0.51 | 2.29 ± 0.28 | COC(=O)c1c2c(c(C)[n+]([O-])c1C)C(=O)C(NCc1ccccc1)=CC2=O [Compound 1] | 1.7 | 2.72 | 1.3 | 2.52 | – | 2.67
